Source: patent US8765688B2, “Anti-dandruff compositions containing peptides” (priority 2007, dated 2014)
Ends that are not written are not given here.

Key:
Assay type in all cases: cell-based
[1] = system: Malassezia furfur; assay: Growth inhibition of Malassezia furfur with equal concentrations (% by weight) of P18, Zincpyrithione, Climbazole and Ketoconazole, CFU; conditions: for colony-forming units: 50 μM final conc., mean ± SD
Procedure: (§1) Growth medium: M472-Pityrosporum medium according to DSMZ
(§2) The components were sterilized at 121° C., 1 bar superatmospheric pressure for 20 minutes.
(§3) 2 g/L of olive oil (sterilized by filtration and, after autoclaving, added to the other components)
(§4) Since it was a two-phase medium, the complete medium was treated with sonication in order to enlarge the phase boundary.
(§5) For agar plates, if appropriate, 150 g/L of agar agar were added to the medium.
(§6) The growth test was carried out as follows: A shake flask with M472-Pityrosporum medium was inoculated with M. furfur and incubated with shaking overnight at 30° C. and 200 rpm.
A 96-well microtiter plate was filled with in each case 100 μl of M472-Pityrosporum medium and inoculated with M. furfur suspension of the overnight culture. The M. furfur suspension was adjusted at the start of the experiment to an optical density, measured at 600 nm, of 0.02. The concentrates of the inhibitor solutions were 1 mM in DMSO for the peptide P18 and 10 mM in DMSO for Zincpyrithione, Ketoconazole and Climbazole. The DMSO final concentrations were maintained the same in all experiments. This means that a corresponding volume of DMSO was added to the mixture in the case of a higher concentration of Zincpyrithione, Ketoconazole or Climbazole concentrate in order to ensure comparability to the mixtures containing P18.
The growth of the following batches was compared by measuring the optical density:
M. furfur suspension and addition of P18 solution with a final concentration of 50 μM (equal to 0.0115% (w/w))
M furfur suspension and addition of Zincpyrithione (ZPT) solution with a final concentration of 362 μM (comparison to the mixture containing 50 μM of the peptide P18)
M furfur suspension and addition of Ketoconazole solution with a final concentration of 216 μM (comparison to the mixture containing 50 μM of the peptide P18)
M furfur suspension and addition of Climbazole solution with a final concentration of 390 μM (comparison to the mixture containing 50 μM of the peptide P18)
(§7) The microtiter plate was incubated with shaking at 30° C.
After 24 hours of incubation, the colony-forming units (CFU) were determined by plating out 10 μl of medium from each of the suspensions on agar plates. After incubation for 6 days, the colonies on the plates were counted. The CFU was determined in order to exclude an influence of the two-phase medium and also the growth form of M. furfur on the optical density. The experiments were carried out in at least two independent experiments, each with double determination.

[2] = system: Malassezia furfur; assay: Incubation times with P18 from 5 minutes to 1 hour, CFU of M. furfur, compared to Zincpyrithione
Procedure: Since growth inhibition of M. furfur by the peptide P18 (P18 peptide sequence H-KWKLFKKIPKFLHLAKKF-NH2; SEQ ID NO: 3) had so far only been analyzed over incubation times of more than one hour, now the effect of the peptide P18 within the first minutes of incubation (5 minutes, 10 minutes and 20 minutes) up to the first hour after adding to the M. furfur overnight culture was tested and compared to the reference substance Zincpyrithione (Sigma Aldrich). For this, the peptide P18 and the reference substance Zincpyrithione were used in concentrations of 100 μM, 200 μM and 500 μM. The experiments were carried out as follows:
as §1, §2, §3, §4, §5, §6
A 96-well microtiter plate was filled with in each case 100 μl of M472-Pityrosporum medium and inoculated with M. furfur suspension of the overnight culture. The M. furfur suspension was adjusted at the start of the experiment to an optical density, measured at 600 nm, of 0.1.
The growth of the following batches was compared:
M. furfur suspension and addition of the peptide P18 with a final concentration of 100 μM, plating out after 5 minutes, 10 minutes, 20 minutes and 60 minutes
M. furfur suspension and addition of the peptide P18 with a final concentration of 200 μM plating out after 5 minutes, 10 minutes, 20 minutes and 60 minutes
M. furfur suspension and addition of the peptide P18 with a final concentration of 500 μM plating out after 5 minutes, 10 minutes, 20 minutes and 60 minutes
M. furfur suspension and addition of Zincpyrithione with a final concentration of 100 μM plating out after 5 minutes, 10 minutes, 20 minutes and 60 minutes
M. furfur suspension and addition of Zincpyrithione with a final concentration of 200 μM plating out after 5 minutes, 10 minutes, 20 minutes and 60 minutes
M. furfur suspension and addition of Zincpyrithione with a final concentration of 500 μM plating out after 5 minutes, 10 minutes, 20 minutes and 60 minutes
as §7
After the incubation times indicated above, the colony-forming units (CFU) were determined by plating out 50 μl from each of the suspensions and, after incubation for 6 days, counting the colonies. The CFU was determined in order to exclude an influence of the two-phase medium and also the growth form of M. furfur on the optical density. The experiments were independently repeated.

[3] = system: Escherichia coli; assay: Growth inhibition of Gram-negative bacteria by P18 (optical density at 620 nm); conditions: for optical density at 620 nm: E. coli suspension, 25 μM P18 solution, mean of 8 mixtures
Procedure: The growth inhibition by P18 was investigated on Gram-positive and Gram-negative bacteria. Shin et al. 1999 (loc.cit.) had already detected an inhibition on the model organisms Escherichia coli and Bacillus subtilis within a period up to 18 hours.
The growth medium used for this was LB medium as complex medium for the organisms Escherichia coli, Bacillus subtilis and Brevibacterium epidermidis. The medium comprised 10 g of trypton, 5 g of yeast extract and 10 g of NaCl per liter.
The growth test was carried out as follows: A shake flask with medium was inoculated with Escherichia coli, Bacillus subtilis or Brevibacterium epidermidis and incubated with shaking overnight at 30° C. and 200 rpm. A 96-well microtiter plate was filled with in each case 100 μl LB medium and inoculated with E.-coli, B.-subtilis or B. epidermidis suspensions of the overnight culture. The bacteria suspension was adjusted at the start of the experiment to an optical density, measured at 620 nm, of about 0.02. The concentrates of the P18 inhibitor solutions were 1 mM in water.
The growth of the following mixtures was compared by measuring the optical density:
bacteria suspension without the addition of an inhibitor;
bacteria suspension and addition of an aqueous P18 solution with a final concentration of 25 μM. The aqueous P18 solution had been freshly prepared.
The growth was observed over a period of 40 hours by measuring the optical density. […] The growth of Gram-positive bacteria was inhibited initially.

Substance: KWKLFKKIPKFLHLAKKF-NH2 [P18, KWKLFKKIPKFLHLAKKF-NH2]
- reduction of CFU compared to reference substances ([1]; 50 μM (0.0115% (w/w)), equal % by weight, 24 hours): more effectively than the reference substances Zincpyrithione, Climbazole and Ketoconazole
- colony-forming units ([1]; incubation time 24 h): 1 ± 1
- colony-forming units ([1]; incubation time 40 h): 0 ± 0
- number of living Malassezia furfur cells ([2]; after the first 10 minutes of incubation): considerably reduced as compared to incubation with Zincpyrithione
- colony-forming units after the indicated incubation time ([2]; final concentration 100 μM, 5 minutes): >1000
- colony-forming units after the indicated incubation time ([2]; final concentration 100 μM, 10 minutes): >1000
- colony-forming units after the indicated incubation time ([2]; final concentration 100 μM, 20 minutes): 604
- colony-forming units after the indicated incubation time ([2]; final concentration 100 μM, 60 minutes): 149 ± 60
- colony-forming units after the indicated incubation time ([2]; final concentration 200 μM, 5 minutes): >1000
- colony-forming units after the indicated incubation time ([2]; final concentration 200 μM, 10 minutes): >1000
- colony-forming units after the indicated incubation time ([2]; final concentration 200 μM, 20 minutes): >1000
- colony-forming units after the indicated incubation time ([2]; final concentration 200 μM, 60 minutes): 52 ± 16
- colony-forming units after the indicated incubation time ([2]; final concentration 500 μM, 5 minutes): >1000
- colony-forming units after the indicated incubation time ([2]; final concentration 500 μM, 10 minutes): 398 ± 290
- colony-forming units after the indicated incubation time ([2]; final concentration 500 μM, 20 minutes): 26 ± 6
- colony-forming units after the indicated incubation time ([2]; final concentration 500 μM, 60 minutes): 1 ± 1
- growth of E. coli (in words) ([3]; 25 μM, period of 40 hours): effectively inhibited
- optical density at 620 nm ([3]; incubation time 16 h): 0.09
- optical density at 620 nm ([3]; incubation time 24 h): 0.06
- optical density at 620 nm ([3]; incubation time 40 h): 0.07
